Consider 17 molecules from US20250115581A1, “SUBSTITUTED PIPERIDINES AS CK1A DEGRADERS” (Monte Rosa Therapeutics, Inc., priority 2022, published 2025).

One assay addresses CRBN/DDB1 (Homo sapiens, UniProt Q96SW2). Nature of the assay: HTRF binding assay (displacement of Cy5-thalidomide probe from CRBN/DDB1). The conditions noted are these: CRBN/DDB1 2.5 nM, Cy5-Thalidomide 100 nM, 30 min; geometric mean; read-out: HTRF_Thali_Disp_DR_geo_IC50. From the text:
Binding of test compounds to CRBN/DDB1 was monitored in an HTRF assay using 1-[5-({2-[2-(2-{[2-(2,6-dioxopiperidin-3-yl)-1,3-dioxo-2,3-dihydro-1H-isoindol-4-yl]oxy}acetamido)ethoxy]ethyl}carbamoyl)pentyl]-3,3-dimethyl-2-[(1E,3E)-5-[(2E)-1,3,3-trimethyl-5-sulfo-2,3-dihydro-1H-indol-2-ylidene]penta-1,3-dien-1-yl]-3H-indol-1-ium-5-sulfonate as a fluorescent probe. In this assay, compounds displace the fluorescently labeled thalidomide-based probe bound to CRBN and fluorescence is monitored with increasing compound concentration. Assays were conducted in Greiner white 384 well HiBase plates (Cat. No 784075-25) in 10 μL total volume. A one pot detection solution of CRBN/DDB1 (2.5 nM), anti-His Terbium Cryptate Gold (1×, PerkinElmer Cat. #: 61HI2TLB), and Cy5-Thalidomide (100 nM, Tenova Cat.: T52461) was prepared in 20 mM HEPES, 20 mM NaCl, 0.2 mM TCEP, 0.2 mM EDTA, and 0.005% Tween20 was dispensed to each assay plate. Test compounds were stored in dry, ambient temperatures at 10 mM. A 10-point, 1:3 dilution series was prepared from 10 mM stock concentrations in Echo-compatible LDV plates. 10 nL of each compound dilution series was dispensed into assays wells using an Echo 650 (Labcyte inc. USA). 10 nL of 10 mM lenalidomide (Selleckchem Cat no. S1029) was transferred into the active-control wells for the assay and 10 nL of DMSO was transferred into the negative control wells. The assay was then allowed to incubate for 30 min at ambient temperature after transferring the test compounds. Plate measurements were taken on a Pherastar FSX (BMG Labtech, Germany) using the HTRF Red filter (Ex. 337 nm, em1: 620 nm, em2: 665 nm) (Flashes: 50, Integration time: 60-400 μs, Z-height: 10 mm, Ratio-multiplier: 10,000). Analysis, HTRF ratio and IC50 values were derived using KNIME analytics (KNIME Zurich) transformation and fitting within Collaborative Drug Discovery (Collaborative Drug Discovery USA) using a 4-parameter logistic fit. HTRF ratio calculation was performed using the following formula: […]
where em665 nm represents the measured emission at 665 nm upon excitation at 337 nm and em620 nm the measured emission at 620 nm upon excitation at 337 nm. The 4 parameter logistic fitting model was performed using the following formula: […]
where Y represents the HTRF ratio response (as defined previously), X the compound concentration in μM, Ymin the minimum response plateau, Ymax the maximum response plateau, IC50 the concentration of […] that gives a response half way between Ymin and Ymax and HillSlope the steepness of the family of curves. No fitting model constraints was applied on Ymin, or Ymax whilst IC50>0 and −0.5>HillSlope>−3 Cheng-Prusoff transformation
Ki values were derived from the geometric mean of the IC50 values using the Cheng-Prusoff transformation:
where [L] represents the concentration of fluorescent probe in […], Kd the affinity (binding constant) of the fluorescent probe in units of μM and IC50 the concentration of agonist that gives a response halfway between Ymin and Ymax (as described in 1.2.1)
Analysis and IC50 values were derived using KNIME analytics (KNIME, Zurich) transformation and fitting within Collaborative Drug Discovery (Collaborative Drug Discovery, USA) as described in 1.2.1. Ki values were derived from the geometric mean of the IC50 values using the Cheng-Prusoff transformation as described in 2.2.2. Data was visualized in GraphPad Prism 8.1.2 (GraphPad, USA) and reported as mean and standard deviation. Microsoft Office Excel 2012 (Redmond, WA) was used for calculation of mean and standard deviation.
IC50 data are reported in Table 3 for compounds in Table 1. In Table 3 below, According to the code, A represents a IC50 value of ≤0.1 μM, B represents a IC50 value >0.1 μM and ≤1 μM, C represents an IC50 value >1 μM.
A general note: Time-resolved FRET reads energy transfer from a long-lived donor to a nearby acceptor.

Another assay has as its target T1, CK1α (Homo sapiens, UniProt P48729+Q96SW2).
T1 construct: HEK293 clonal lines with CRISPR KI HiBiT tag on CSNK1A1; host or cells: HEK293 clonal line, CRISPR knock-in HiBiT at the CSNK1A1 locus, stably expressing LgBiT
As to the kind of experiment: CK1α NanoBit Assay (HiBiT-tagged CSNK1A1 in HEK293 cells, luminescence). In kind it is cell-based. The settings on record: 24 h. As to the method:
HEK293 clonal lines with CRISPR KI HiBiT tag on CSNK1A1 and stably expressing LgBiT protein were obtained from Promega (Madison, WI). Cells were plated at 5000 cells per well using Multiflo (BioTek) in 384-well white solid bottom plates (Corning, 3570BC) in 25 μl volume in DMEM media (DMEM, high glucose, HEPES, no phenol red (ThermoFisher Scientific, 21063029)) containing 10% FBS (Corning, 35-075-CV), 1% Penicillin/Streptomycin ((ThermoFisher Scientific, 15140-122), and 0.2% Endurazine (Nano-Glo Endurazine Live Cell Substrate (Promega, N2571)). Cells were incubated for 16 hours at 37° C., 5% CO2. Depending on experiment 25 or 75 nL of a compound at 10 mM were added into the plate using an Echo® 650 liquid handler (Labcyte) to achieve final concentration of 10 or 30 μM in wells. Cells were incubated at 37° C., 5% CO2 for 24 hours and then signal was read on a Pherastar FSX using “LUM plus” optic module.
Data analysis was performed in Scinamic (Scinamic, Cambridge, MA). Luminescence response (R) was calculated by the formula: response=100*(S−N)/(P−N) where S is the signal of the well, N and P the mean negative and positive control values respectively of the same plate. The luminescence response was then fitted in Scinamic using a 3-parameter agonist logistic fit (hillslope=1, EC50>0, top/bottom unconstrained).
DC50 data are reported in Table 2 for compounds in Table 1. In Table 2 below, According to the code, A represents a DC50 value of ≤0.1 μM, B represents a DC50 value >0.1 μM and ≤1 μM, C represents an DC50 value >1 μM.

CRBN/DDB1, sequence (Q96SW2 whole entry): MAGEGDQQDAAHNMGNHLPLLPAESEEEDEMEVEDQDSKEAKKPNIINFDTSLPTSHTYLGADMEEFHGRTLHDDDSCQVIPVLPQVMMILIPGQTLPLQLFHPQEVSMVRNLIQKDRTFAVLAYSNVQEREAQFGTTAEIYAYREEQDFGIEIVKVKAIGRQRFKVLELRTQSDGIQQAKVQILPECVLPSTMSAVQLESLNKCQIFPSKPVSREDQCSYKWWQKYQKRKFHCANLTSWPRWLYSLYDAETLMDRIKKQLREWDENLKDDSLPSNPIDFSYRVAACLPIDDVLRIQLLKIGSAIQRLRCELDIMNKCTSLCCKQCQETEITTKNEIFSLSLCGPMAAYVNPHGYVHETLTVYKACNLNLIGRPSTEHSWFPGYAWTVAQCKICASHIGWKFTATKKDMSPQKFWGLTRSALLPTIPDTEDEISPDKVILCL
CRBN/DDB1, sequence (Q16531 whole entry partner): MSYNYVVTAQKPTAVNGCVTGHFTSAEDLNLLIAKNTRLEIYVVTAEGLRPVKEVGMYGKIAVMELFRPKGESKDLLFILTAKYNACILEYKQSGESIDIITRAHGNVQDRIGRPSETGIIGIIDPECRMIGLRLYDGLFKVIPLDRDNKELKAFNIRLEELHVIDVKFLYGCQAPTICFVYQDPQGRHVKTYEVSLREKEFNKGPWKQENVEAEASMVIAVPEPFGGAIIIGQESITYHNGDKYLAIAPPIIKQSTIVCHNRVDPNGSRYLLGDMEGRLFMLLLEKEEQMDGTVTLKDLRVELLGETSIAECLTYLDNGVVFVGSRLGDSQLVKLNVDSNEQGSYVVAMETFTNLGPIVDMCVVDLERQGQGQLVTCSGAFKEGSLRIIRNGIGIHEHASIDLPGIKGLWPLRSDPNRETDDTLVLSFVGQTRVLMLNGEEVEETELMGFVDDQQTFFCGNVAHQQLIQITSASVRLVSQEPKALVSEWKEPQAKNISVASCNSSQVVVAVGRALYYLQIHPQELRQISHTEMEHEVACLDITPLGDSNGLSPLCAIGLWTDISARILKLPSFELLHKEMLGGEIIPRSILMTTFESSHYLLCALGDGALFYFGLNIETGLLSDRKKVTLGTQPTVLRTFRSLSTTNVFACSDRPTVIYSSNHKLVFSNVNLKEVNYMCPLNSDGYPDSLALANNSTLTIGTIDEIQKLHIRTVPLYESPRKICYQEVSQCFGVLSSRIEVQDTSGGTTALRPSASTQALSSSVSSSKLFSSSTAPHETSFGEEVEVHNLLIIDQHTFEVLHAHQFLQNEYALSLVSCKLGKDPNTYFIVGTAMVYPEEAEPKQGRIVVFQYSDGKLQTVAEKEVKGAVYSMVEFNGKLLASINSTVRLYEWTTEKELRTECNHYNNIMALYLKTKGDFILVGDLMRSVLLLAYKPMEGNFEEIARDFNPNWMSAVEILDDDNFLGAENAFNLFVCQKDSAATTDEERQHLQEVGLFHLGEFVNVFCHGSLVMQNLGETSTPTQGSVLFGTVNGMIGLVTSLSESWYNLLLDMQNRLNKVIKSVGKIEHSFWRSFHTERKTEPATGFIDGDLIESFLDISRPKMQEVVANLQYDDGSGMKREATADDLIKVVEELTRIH
T1 sequence (P48729 whole entry): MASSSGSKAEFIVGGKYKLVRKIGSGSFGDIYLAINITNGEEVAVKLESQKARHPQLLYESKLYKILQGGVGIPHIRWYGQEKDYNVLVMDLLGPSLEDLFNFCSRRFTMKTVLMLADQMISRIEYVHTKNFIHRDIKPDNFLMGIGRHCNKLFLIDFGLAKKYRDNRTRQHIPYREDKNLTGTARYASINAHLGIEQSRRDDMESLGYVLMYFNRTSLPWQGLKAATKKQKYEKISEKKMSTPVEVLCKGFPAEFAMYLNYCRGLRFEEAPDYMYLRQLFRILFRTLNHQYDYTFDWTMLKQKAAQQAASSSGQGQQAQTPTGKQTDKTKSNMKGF
T1 sequence (Q96SW2 whole entry): as the sequence (Q96SW2 whole entry) above
T1 sequence (Q16531 whole entry partner): as the sequence (Q16531 whole entry partner) above

As to `Cc1ccc(N2C(=O)N(c3ccc4c(c3)CN(C3CCC(=O)NC3=O)C4=O)C[C@@H]2C(F)F)cc1` (stereo partly drawn) [Compound 158, 3-(5-((R)-4-(difluoromethyl)-2-oxo-3-(p-tolyl)imidazolidin-1-yl)-1-oxoisoindolin-2-yl)piperidine-2,6-dione], the IC50 at CRBN/DDB1 is 0.1 to 1 µM. The molecule also gave a DC50 at CK1α of 0.1 to 1 µM.
`COC1(c2ccc(N3CCN(c4ccc5c(c4)CN(C4CCC(=O)NC4=O)C5=O)C3=O)cc2)CC1` (stereo not shown) [Compound 133, 3-(5-(3-(4-(1-methoxycyclopropyl)phenyl)-2-oxoimidazolidin-1-yl)-1-oxoisoindolin-2-yl)piperidine-2,6-dione]: the IC50 at CRBN/DDB1 was in the range of 0.1 to 1 µM. The DC50 at CK1α was not above 0.1 µM.
The matching figures for `C[C@@H]1CN(c2ccc3c(c2)CN(C2CCC(=O)NC2=O)C3=O)C(=O)N1C1CCOC1` (stereo partly drawn) [Compound 161, 3-(5-((4R)-4-methyl-2-oxo-3-(tetrahydrofuran-3-yl)imidazolidin-1-yl)-1-oxoisoindolin-2-yl)piperidine-2,6-dione]: 0.1 to 1 µM and 0.1 to 1 µM.
For `O=C1CCC(N2Cc3cc(N4CCN(c5ccc6[nH]cnc6c5)C4=O)ccc3C2=O)C(=O)N1` (stereo not shown) [Compound 170, 3-(5-(3-(1H-benzo[d]imidazol-5-yl)-2-oxoimidazolidin-1-yl)-1-oxoisoindolin-2-yl) piperidine-2,6-dione], the IC50 on CRBN/DDB1 was not above 0.1 µM. On CK1α, the DC50 lay in the range of 0.1 to 1 µM.
The matching figures for `O=C1CCC(N2Cc3cc(N4CCN(C5CCC5)C4=O)ccc3C2=O)C(=O)N1` (stereo not shown) [Compound 159, 3-(5-(3-cyclobutyl-2-oxoimidazolidin-1-yl)-1-oxoisoindolin-2-yl)piperidine-2,6-dione]: more than 1 µM and 0.1 to 1 µM.
In the case of `O=C1CCC(N2Cc3cc(N4CCN(c5ccc(C6CCOC6)cc5)C4=O)ccc3C2=O)C(=O)N1` (stereo not shown) [Compound 144, 3-(1-oxo-5-(2-oxo-3-(4-(tetrahydrofuran-3-yl)phenyl)imidazolidin-1-yl)isoindolin-2-yl)piperidine-2,6-dione], at CRBN/DDB1, the IC50 lay within 0.1 to 1 µM. This molecule also returned a DC50 on CK1α not above 0.1 µM.
The matching figures for `O=C1CCC(N2Cc3cc(N4CCN(c5ccc(C(F)F)cc5)C4=O)ccc3C2=O)C(=O)N1` (stereo not shown) [Compound 129, 3-(5-(3-(4-(difluoromethyl)phenyl)-2-oxoimidazolidin-1-yl)-1-oxoisoindolin-2-yl)piperidine-2,6-dione]: 0.1 to 1 µM and not above 0.1 µM.
`CC1(c2ccc(N3CCN(c4ccc5c(c4)CN(C4CCC(=O)NC4=O)C5=O)C3=O)cc2)CC1` (stereo not shown) [Compound 135, 3-(5-(3-(4-(1-methylcyclopropyl)phenyl)-2-oxoimidazolidin-1-yl)-1-oxoisoindolin-2-yl)piperidine-2,6-dione]: the IC50 at CRBN/DDB1 was more than 1 µM. For the same molecule, the DC50 on CK1α was not above 0.1 µM.
The matching figures for `O=C1CCC(N2Cc3cc(N4CCN(C5C6CCCC65)C4=O)ccc3C2=O)C(=O)N1` (stereo not shown) [Compound 160, 3-(5-(3-(bicyclo[3.1.0]hexan-6-yl)-2-oxoimidazolidin-1-yl)-1-oxoisoindolin-2-yl)piperidine-2,6-dione]: 0.1 to 1 µM and 0.1 to 1 µM.
For `C[C@@H]1CN(c2ccc3c(c2)CN(C2CCC(=O)NC2=O)C3=O)C(=O)N1c1ccncn1` (stereo partly drawn) [Compound 180, 3-(5-((R)-4-methyl-2-oxo-3-(pyrimidin-4-yl)imidazolidin-1-yl)-1-oxoisoindolin-2-yl)piperidine-2,6-dione], in that order: more than 1 µM and more than 1 µM.
On to `O=C1CCC(N2Cc3cc(N4CCN(c5ccccn5)C4=O)ccc3C2=O)C(=O)N1` (stereo not shown) [Compound 105, 3-(1-oxo-5-(2-oxo-3-(pyridin-2-yl)imidazolidin-1-yl)isoindolin-2-yl)piperidine-2,6-dione], for which the IC50 on CRBN/DDB1 is more than 1 µM. This molecule also displayed a DC50 on CK1α not above 0.1 µM.
Turning to `CC1CN(c2ccc3c(c2)CN(C2CCC(=O)NC2=O)C3=O)C(=O)N1c1ccc(C(F)(F)F)nc1` (stereo not shown) [Compound 121, 3-(5-(4-methyl-2-oxo-3-(6-(trifluoromethyl)pyridin-3-yl)imidazolidin-1-yl)-1-oxoisoindolin-2-yl)piperidine-2,6-dione], the IC50 at CRBN/DDB1 lay in the range of 0.1 to 1 µM. This molecule also registered a DC50 on CK1α not above 0.1 µM.
For `O=C1CCC(N2Cc3cc(N4CCN(c5cccc(C(F)(F)F)c5)C4=O)ccc3C2=O)C(=O)N1` (stereo not shown) [Compound 116, 3-(1-oxo-5-(2-oxo-3-(3-(trifluoromethyl)phenyl)imidazolidin-1-yl)isoindolin-2-yl)piperidine-2,6-dione], in that order: 0.1 to 1 µM and not above 0.1 µM.
Regarding `O=C1CCC(N2Cc3cc(N4CCN(C5CCOCC5)C4=O)ccc3C2=O)C(=O)N1` (stereo not shown) [Compound 183, 3-(1-oxo-5-(2-oxo-3-(tetrahydro-2H-pyran-4-yl)imidazolidin-1-yl)isoindolin-2-yl)piperidine-2,6-dione], the IC50 on CRBN/DDB1 fell in the range of 0.1 to 1 µM. The DC50 on CK1α is more than 1 µM.
For `O=C1CCC(N2Cc3cc(N4CCN(C5CN(c6ccccn6)C5)C4=O)ccc3C2=O)C(=O)N1` (stereo not shown) [Compound 184, 3-(1-oxo-5-(2-oxo-3-(1-(pyridin-2-yl)azetidin-3-yl)imidazolidin-1-yl)isoindolin-2-yl)piperidine-2,6-dione], in that order: 0.1 to 1 µM and more than 1 µM.
For `CC(C)c1cccc(N2CCN(c3ccc4c(c3)CN(C3CCC(=O)NC3=O)C4=O)C2=O)c1` (stereo not shown) [Compound 119, 3-(5-(3-(3-isopropylphenyl)-2-oxoimidazolidin-1-yl)-1-oxoisoindolin-2-yl)piperidine-2,6-dione], in that order: 0.1 to 1 µM and not above 0.1 µM.
For `O=C1CCC(N2Cc3cc(N4CCN(c5ccc6c(c5)OCC6)C4=O)ccc3C2=O)C(=O)N1` (stereo not shown) [Compound 127, 3-(5-(3-(2,3-dihydrobenzofuran-6-yl)-2-oxoimidazolidin-1-yl)-1-oxoisoindolin-2-yl)piperidine-2,6-dione], in that order: more than 1 µM and not above 0.1 µM.
